Measured values as given in ChEMBL document CHEMBL5634080, “Synthesis, biological evaluation and docking studies of silicon incorporated diarylpyrroles as MmpL3 inhibitors: An effective strategy towards development of potent anti-tubercular agents” (Eur J Med Chem, 2023).
Values after ≈ are worked out from the molar mass of the structure shown.

Legend:
[1] = system: Mycobacterium tuberculosis; assay: Antitubercular activity against Mycobacterium tuberculosis H37Rv assessed as inhibition of bacterial growth incubated for 6 days by Alamar Blue based assay; type: functional; details: 144 h, time 6 day
[2] = system: Mycobacterium tuberculosis; assay: Antitubercular activity against Mycobacterium tuberculosis H37Rv; type: functional
[3] = Selectivity index, ratio of IC50 for cytotoxicity against mouse primary astrocytes cells to MIC for antitubercular activity against Mycobacterium tuberculosis H37Rv; type: toxicity, cell-based; details: read-out: Ratio IC50
[4] = Metabolic stability in human plasma at 50 uM measured after 60 mins by LC-MS/MS analysis; type: ADME, cell-free; details: read-out: Stability
[5] = Solubility of the compound at 5 mM at pH 2.2 by HPLC analysis; type: physicochemical; details: buffer
[6] = Cytotoxicity against mouse primary astrocytes assessed as reduction in cell viability measured after 24 hrs by MTT assay; type: toxicity, cell-based, Astrocyte
[7] = Metabolic stability in human liver microsomes at 50 uM measured after 30 mins by LC-MS/MS analysis; type: ADME, Microsome; details: read-out: Stability
[8] = Selectivity index, ratio of IC50 for cytotoxicity against HEK293 cells to MIC for antitubercular activity against Mycobacterium tuberculosis H37Rv; type: toxicity, cell-based; details: human, read-out: Ratio IC50
[9] = Solubility of the compound at 5 mM at pH 4.5 by HPLC analysis; type: physicochemical; details: buffer
HEK293 = assay: Cytotoxicity against HEK293 cells assessed as reduction in cell viability at >45 uM measured after 24 hrs by MTT assay; type: toxicity, cell-based; details: human, hek293, 24 h
[10] = Solubility of the compound at 5 mM at pH 10.2 by HPLC analysis; type: physicochemical; details: buffer
[11] = Solubility of the compound at 5 mM at pH 7.4 by HPLC analysis; type: physicochemical; details: buffer
[12] = Metabolic stability in mouse liver microsomes at 50 uM measured after 30 mins by LC-MS/MS analysis; type: ADME, Microsome; details: read-out: Stability
[13] = Solubility of the compound at 5 mM at pH 1.2 by HPLC analysis; type: physicochemical; details: buffer
[14] = Protein binding in human plasma at 150 uM by equilibrium dialysis method; type: ADME, cell-free; details: read-out: PPB (converted)

## CCc1ccc(-c2cc(CN3CC[Si](C)(C)CC3)c(C)n2-c2ccc(OC)cc2)cc1
[1]
  MIC: 0.2 µM (≈ 0.0865 µg/mL)

## CSc1ccc(-c2cc(CN3CC[Si](C)(C)CC3)c(C)n2-c2ccc(F)cc2)cc1
[1]
  MIC: 0.2 µM (≈ 0.0877 µg/mL)

## Cc1c(C(=O)NN2CCCCC2)nn(-c2ccc(Cl)cc2Cl)c1-c1ccc(Cl)cc1 [RIMONABANT]
[2]
  MIC: 54 µM (≈ 25 µg/mL)

## COc1ccc(-c2c(CN3CC[Si](C)(C)CC3)cc(C)n2-c2ccc(F)cc2)cc1
[1]
  MIC: 7.4 µM (≈ 3.13 µg/mL)

## COc1ccc(-c2cc(CN3CC[Si](C)(C)CC3)c(C)n2-c2ccc(F)cc2)cc1
[1]
  MIC: 1.5 µM (≈ 0.634 µg/mL)

## CCc1ccc(-n2c(-c3ccc(Cl)cc3)cc(CN3CC[Si](C)(C)CC3)c2C)cc1
[3]
  selectivity ratio: > 250
[4]
  remaining at 1 h, 50 µM: 95.7%
[5]
  solubility at 5000 µM: 37.2 µM (≈ 16.3 µg/mL)
[6]
  IC50 at 24 h: > 20 µM
[7]
  remaining at 0.5 h, 50 µM: 60.8%
[8]
  selectivity ratio: > 250
[9]
  solubility at 5000 µM: 32.6 µM (≈ 14.3 µg/mL)
HEK293
  Activity: Non-Toxic
[10]
  solubility at 5000 µM: 12.9 µM (≈ 5.65 µg/mL)
[11]
  solubility at 5000 µM: 1.19 µM (≈ 0.52 µg/mL)
[12]
  remaining at 0.5 h, 50 µM: 75.5%
[13]
  solubility at 5000 µM: 9.86 µM (≈ 4.31 µg/mL)
[14]
  fraction unbound at 150 µM: 0.0002
[1]
  MIC: 0.1 µM (≈ 0.0437 µg/mL)

## CCc1ccc(-n2c(C)cc(CN3CC[Si](C)(C)CC3)c2-c2ccc(OC)cc2)cc1
[1]
  MIC: 23.1 µM (≈ 10 µg/mL)

## CSc1ccc(-c2c(CN3CC[Si](C)(C)CC3)cc(C)n2-c2ccc(F)cc2)cc1
[1]
  MIC: 3.6 µM (≈ 1.58 µg/mL)

## Cc1c(CN2CCN(C)CC2)cc(-c2ccc(Cl)cc2)n1-c1ccc(Cl)cc1
[5]
  solubility at 5000 µM: 42.2 µM (≈ 17.5 µg/mL)
[7]
  remaining at 0.5 h, 50 µM: 79.8%
[9]
  solubility at 5000 µM: 36.7 µM (≈ 15.2 µg/mL)
[10]
  solubility at 5000 µM: 5.38 µM (≈ 2.23 µg/mL)
[11]
  solubility at 5000 µM: 26.7 µM (≈ 11.1 µg/mL)
[12]
  remaining at 0.5 h, 50 µM: 62.4%
[13]
  solubility at 5000 µM: 45.2 µM (≈ 18.7 µg/mL)
[1]
  MIC: 1.7 µM (≈ 0.704 µg/mL)

## CCc1ccc(-n2c(-c3ccc(OC)cc3)cc(CN3CC[Si](C)(C)CC3)c2C)cc1
[1]
  MIC: 1.5 µM (≈ 0.649 µg/mL)

## Cc1c(CN2CC[Si](C)(C)CC2)cc(-c2ccc(Cl)cc2)n1-c1ccccc1
[1]
  MIC: 0.1 µM (≈ 0.0409 µg/mL)

## Cc1c(CN2CC[Si](C)(C)CC2)cc(-c2ccc(Cl)cc2)n1-c1ccc(Cl)cc1
[3]
  selectivity ratio: > 250
[4]
  remaining at 1 h, 50 µM: 99.4%
[5]
  solubility at 5000 µM: 39.1 µM (≈ 17.3 µg/mL)
[6]
  IC50 at 24 h: > 20 µM
[7]
  remaining at 0.5 h, 50 µM: 56.7%
[8]
  selectivity ratio: > 250
[9]
  solubility at 5000 µM: 36.7 µM (≈ 16.3 µg/mL)
HEK293
  Activity: Non-Toxic
[11]
  solubility at 5000 µM: 4.73 µM (≈ 2.1 µg/mL)
[12]
  remaining at 0.5 h, 50 µM: 86.3%
[13]
  solubility at 5000 µM: 38.8 µM (≈ 17.2 µg/mL)
[14]
  fraction unbound at 150 µM: 0.0002
[1]
  MIC: 0.1 µM (≈ 0.0443 µg/mL)

## NNC(=O)c1ccncc1 [ISONIAZID]
[1]
  MIC: 2.2 µM (≈ 0.302 µg/mL)

## C[Si]1(C)CCN(Cc2cc(-c3ccc(Cl)cc3)n(-c3ccc(Cl)cc3)n2)CC1
[2]
  MIC: 0.07 µM (≈ 0.0301 µg/mL)

## Cc1ccc(-c2cc(CN3CC[Si](C)(C)CC3)c(C)n2-c2ccc(F)cc2)cc1
[3]
  selectivity ratio: > 250
[4]
  remaining at 1 h, 50 µM: 96.9%
[5]
  solubility at 5000 µM: 42.1 µM (≈ 17.1 µg/mL)
[6]
  IC50 at 24 h: > 20 µM
[7]
  remaining at 0.5 h, 50 µM: 36.4%
[8]
  selectivity ratio: > 250
[9]
  solubility at 5000 µM: 42.6 µM (≈ 17.3 µg/mL)
HEK293
  Activity: Non-Toxic
[10]
  solubility at 5000 µM: 3.13 µM (≈ 1.27 µg/mL)
[11]
  solubility at 5000 µM: 26.8 µM (≈ 10.9 µg/mL)
[12]
  remaining at 0.5 h, 50 µM: 45.1%
[13]
  solubility at 5000 µM: 43.7 µM (≈ 17.8 µg/mL)
[14]
  fraction unbound at 150 µM: 0.0009
[1]
  MIC: 0.1 µM (≈ 0.0407 µg/mL)
